According to patent US11673898B2, “Substituted inhibitors of menin-MLL and methods of use” (Kura Oncology, Inc., priority 2016, dated 2023):

Molecular target: T1, Menin MLL 4-43 (Homo sapiens, UniProt O00255)
T1 sequence (O00255 1-610): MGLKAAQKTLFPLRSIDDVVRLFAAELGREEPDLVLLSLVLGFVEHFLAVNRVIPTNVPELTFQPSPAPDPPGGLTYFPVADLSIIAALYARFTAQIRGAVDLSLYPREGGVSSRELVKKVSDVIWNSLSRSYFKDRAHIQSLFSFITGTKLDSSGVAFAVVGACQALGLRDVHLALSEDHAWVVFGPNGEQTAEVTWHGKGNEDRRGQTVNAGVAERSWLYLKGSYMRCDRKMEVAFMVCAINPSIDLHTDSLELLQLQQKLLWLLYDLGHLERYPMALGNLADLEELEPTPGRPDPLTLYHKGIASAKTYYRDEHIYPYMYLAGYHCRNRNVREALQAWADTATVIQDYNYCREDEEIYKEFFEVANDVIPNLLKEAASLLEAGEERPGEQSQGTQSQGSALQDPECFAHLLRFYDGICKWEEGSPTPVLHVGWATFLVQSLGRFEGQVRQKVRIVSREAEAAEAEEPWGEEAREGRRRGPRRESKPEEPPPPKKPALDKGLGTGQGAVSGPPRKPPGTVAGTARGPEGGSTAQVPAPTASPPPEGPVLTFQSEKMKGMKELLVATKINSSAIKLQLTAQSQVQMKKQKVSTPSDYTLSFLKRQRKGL
Test: Fluorescence polarization (FP) competition assay of the menin-MLL interaction
Format: binding
Conditions: fluorescence polarization assay; read-out: Menin MLL 4-43 IC50

Structure (SMILES) | IC50
Cc1c(CN2CCC(Nc3ncnc4sc(CC(F)(F)F)cc34)CC2)ccc2c1cc(C#N)n2C[C@H](C)N1CCN(C2=NCCO2)CC1 [Compound 143] | 50 to 250 nM
Cc1c(CN2CCC(Nc3ncnc4sc(CC(F)(F)F)cc34)CC2)ccc2c1cc(C#N)n2C[C@H](C)N1CCN(S(=O)(=O)CF)[C@H](C)C1 [Compound 145] | 50 to 250 nM
Cc1nc(NC2CCN(Cc3ccc4c(cc(C#N)n4C[C@H](C)N4CCN(S(=O)(=O)C5CC5)CC4)c3C)CC2)c2cc(CC(F)(F)F)sc2n1 [Compound 146] | 50 to 250 nM
Cc1c(CN2CCC(Nc3nc(N)nc4sc(CC(F)(F)F)cc34)CC2)ccc2c1cc(C#N)n2C[C@H](C)N1CCN(S(=O)(=O)CF)CC1 [Compound 149] | < 50 nM
[2H]C1([2H])N([C@@H](C)Cn2c(C#N)cc3c(C)c(CN4CCC(Nc5ncnc6sc(CC(F)(F)F)cc56)CC4)ccc32)C([2H])([2H])C([2H])([2H])N(S(C)(=O)=O)C1([2H])[2H] [Compound 153] | 50 to 250 nM
Cc1c(CN2CCC(Nc3ncnc4sc(CC(F)(F)F)cc34)CC2)ccc2c1cc(C#N)n2C[C@H](C)N1CCN(C(C)C(N)=O)CC1 (stereo partly shown) [Compound 156] | 50 to 250 nM
Cc1c(CN2CCC(Nc3nc(N)nc4sc(CC(F)(F)F)cc34)CC2)ccc2c1cc(C#N)n2C[C@H](C)N1CCC(S(C)(=O)=O)CC1 [Compound 158] | < 50 nM
C[C@@H](Cn1c(C#N)cc2cc(CN3CCC(Nc4ncnc5sc(CC(F)(F)F)cc45)CC3)c(O)cc21)N1CCN(C=O)CC1 [Compound 159] | 50 to 250 nM
C[C@@H](Cn1c(C#N)cc2cc(CN3CCC(Nc4ncnc5sc(CC(F)(F)F)cc45)CC3)c(O)cc21)N1CCN(S(C)(=O)=O)CC1 [Compound 160] | 50 to 250 nM
Cc1c(CN2CCC(Nc3ncnc4sc(CC(F)(F)F)cc34)CC2)ccc2c1cc(C#N)n2C[C@H](C)N1CCN(S(C)(=O)=O)[C@@H](C(N)=O)C1 [Compound 164] | 50 to 250 nM
Cc1c(CN2CCC(Nc3nc(N)nc4sc(CC(F)(F)F)cc34)CC2)ccc2c1cc(C#N)n2C[C@H](C)N1CCN(C(C)C)CC1 [Compound 166] | < 50 nM
Cc1c(CN2CCC(Nc3nc(N)nc4sc(CC(F)(F)F)cc34)CC2)ccc2c1cc(C#N)n2C[C@H](C)N1CCC(F)(F)CC1 [Compound 168] | 50 to 250 nM

Further lines, results first:

IC50 | Structure (SMILES)
50 to 250 nM | CCCCNS(=O)(=O)N1CCN([C@@H](C)Cn2c(C#N)cc3c(C)c(CN4CCC(Nc5ncnc6sc(CC(F)(F)F)cc56)CC4)ccc32)CC1 [Compound 142]
50 to 250 nM | Cc1c(CN2CCC(Nc3ncnc4sc(CC(F)(F)F)cc34)CC2)ccc2c1cc(C#N)n2C[C@H](C)N1CCN(S(=O)(=O)C(F)F)CC1 [Compound 144]
< 50 nM | Cc1c(CN2CCC(Nc3nc(N)nc4sc(CC(F)(F)F)cc34)CC2)ccc2c1cc(C#N)n2C[C@H](C)N1CCN(S(=O)(=O)C2CC2)CC1 [Compound 147]
< 50 nM | Cc1c(CN2CCC(Nc3ncnc4sc(CC(F)(F)F)cc34)CC2)ccc2c1cc(C#N)n2C[C@H](C)N1CCNCC1 [Compound 148]
50 to 250 nM | Cc1c(CN2CCC(Nc3ncnc4sc(CC(F)(F)F)cc34)CC2)ccc2c1cc(C#N)n2C[C@H](C)N1CCN(P(C)(C)=O)CC1 [Compound 150]
50 to 250 nM | Cc1c(CN2CCC(Nc3ncnc4sc(CC(F)(F)F)cc34)CC2)ccc2c1cc(C#N)n2C[C@H](C)N1C[C@@H](C)N(S(=O)(=O)CF)[C@@H](C)C1 [Compound 152]
< 50 nM | Cc1c(CN2CCC(Nc3ncnc4sc(CC(F)(F)F)cc34)CC2)ccc2c1cc(C#N)n2C[C@H](C)N1CCN(CC(N)=O)CC1 [Compound 154]
20 to 1000 nM | Cc1c(CN2CCC(Nc3ncnc4sc(CC(F)(F)F)cc34)CC2)ccc2c1cc(C#N)n2C[C@H](C)N1CCC(NP(C)(C)=O)CC1 [Compound 157]
50 to 250 nM | [2H]C1([2H])N(C(C)Cn2c(C#N)cc3c(C)c(CN4CCC(Nc5ncnc6sc(CC(F)(F)F)cc56)CC4)ccc32)C([2H])([2H])C([2H])([2H])N(S(C)(=O)=O)C1([2H])[2H] (stereo not shown) [Compound 161]
50 to 250 nM | Cc1c(CN2CCC(Nc3nc(N)nc4sc(CC(F)(F)F)cc34)CC2)ccc2c1cc(C#N)n2C[C@@H](C)N1CCN(S(C)(=O)=O)CC1 [Compound 167]
